Patent US20190008152A1, “PLANT DISEASE CONTROL COMPOSITION AND PLANT DISEASE CONTROL METHOD” (SUMITOMO CHEMICAL COMPANY, LIMITED, priority 2015, published 2019)

Legend:
wheat leaf blight fungus = assay: Test Example 3: growth of wheat leaf blight fungus in YBG medium, microtiter plate, absorbance at 550 nm; assay type: cell-based, Mycosphaerella graminicola; conditions: single use, 18° C., six days
Experimental: The present compound 1-3 or the present compound 2-1 was dissolved into dimethyl sulfoxide such that each concentration of the present compound 1-3 or the present compound 2-1 was adjusted to one hundred fifty times as much as the concentration indicated in the below-mentioned Table 5. The resultant agent solution was dispensed into a microtiter plate (with 96 wells) in 1 μl portion thereof per well. One hundred forty nine (149) μl of YBG medium (which was prepared by dissolving 10 g of yeast extract, 10 g of Bacto Peptone, and 20 mL of glycerol into 1 L of water, followed by sterilizing the medium) was dispensed into the wells to which the agent solution(s) was/were dispensed. The plate was cultivated at 18° C. for six days, thereby allowing wheat leaf blight fungus to undergo proliferation, and the absorbance at 550 nm of each well of the micro titer plate was then measured to examine a degree of growth of the wheat leaf blight fungus (hereinafter referred to as “treated group”).
Whereas, wheat leaf blight fungus was proliferated similarly to the case of the treated group except that dimethyl sulfoxide was used instead of the agent solution, and the degree of the growth was examined (hereinafter referred to as “untreated group”). The efficacy was calculated from the respective obtained degree of growth by the below-mentioned “Equation 1”.
Efficacy (%)=100×(X−Y)/X Equation 1 […]

[1] = system: wheat rust fungus (Puccinia recondita); assay: Test Example 4: foliar spray of flowable formulations on wheat, inoculation with wheat rust fungus, lesion area; assay type: in vivo, Puccinia recondita on wheat (cultivar. Shirogane); conditions: single use
Experimental: Five (5) parts of the present compound 1-3, 35 parts of a mixture of white carbon and ammonium polyoxyethylene alkyl ether sulfate (the weight ratio of 1:1) and 55 parts of water were mixed, and the mixture was then finely-ground by a wet grinding method to obtain a flowable formulation comprising the present compound 1-3. Separately, the flowable formulation comprising the present compound 2-1 was prepared according to the above-mentioned similar method except that the present compound 2-1 was used instead of the present compound 1-3 to form a flowable formulation comprising the present compound 2-1.
Each of the above-mentioned respective flowable formulations, and the flowable formulation comprising the present compound 1-3 and the present compound 2-1 that was prepared according to the above-mentioned Formulation Example 3 was diluted with water such that each concentration of the respective compounds in the dilution solutions was adjusted to that indicated in Table 6, to prepare the dilution solutions, respectively.
A plastic pot was filled with soil, and thereto wheat (cultivar. Shirogane) was seeded, and the plants were grown in a greenhouse for ten days. […]
From each of the lesion area of the treated group and the untreated group, respectively, the efficacy of the treated group was calculated by the below-mentioned Equation 2. […]

With `Cc1cccc(-n2nnn(C)c2=O)c1COc1ccn(-c2ccc(Cl)cc2)n1` [Present compound 1-3, 1-(2-{[1-(4-chlorophenyl)-1H-pyrazol-3-yl]oxymethyl}-3-methylphenyl)-4-methyl-1,4-dihydrotetrazol-5-one] the “Efficacy (%)” value (wheat leaf blight fungus; concentration in medium 0.0001 ppm) was 20%, the “Efficacy (%)” value (wheat leaf blight fungus; concentration in medium 0.01 ppm) was 37% and the “Efficacy (%)” value ([1]; concentration 0.002 ppm) was 35%. The “Efficacy (%)” value ([1]; concentration 0.01 ppm) was 70%.
